Results taken from patent US10076578B2, “Probes for imaging of hypoxia” (Vanderbilt University, priority 2014, dated 2018).
Structures can show the parent of a compound that is named as a salt.

How the values were obtained:
R28 cells [1] = test: Hypoxyprobe adduct immunostaining of normoxia- or hypoxia-conditioned cells; format: cell-based, rat; settings: 100 μM
Procedure: FIG. 1A. R28 cells were treated with 100 μM pimonidazole hydrochloride (Hypoxyprobe) and subjected to normoxia or hypoxia-conditioning for 4 h, followed by Hypoxyprobe adduct immunostaining. […] Primary human Müller cells and R28 cell line were grown in low glucose DMEM supplemented with 10% Fetal Bovine Serum, 1× GlutaMAX, and 1× Penicillin-Streptomycin. All cells were maintained in a humidified environment with 5% CO2 at 37° C. unless otherwise noted. For hypoxia induction, assay plates were placed into a humidified chamber and ambient air was displaced with a mixture of 5% CO2 and 95% N2 at a flow rate of 20 L/min for 5 min according to manufacturer instructions and published methods (28). The chamber was clamped and placed at 37° C. for the remainder of the time point. R28 cells were treated with 100 μM pimonidazole hydrochloride diluted in complete media and subjected to hypoxia or normoxia for 4 h. In order to measure the specificity of HYPOX-1 and HYPOX-2 for hypoxic retinal tissues in vitro, R28 rat retinal neuronal (17, 18) or primary human Müller cells (19) were conditioned in a hypoxic chamber purged with a mixture of nitrogen/carbon dioxide up to 12 h. These two cell lines model predominant oxygen-sensitive cell types in retinal diseases with a hypoxia-ischemia component (20). […]

[2] = tested on: avascular hypoxic retina of OIR mice; test: mouse model of oxygen induced retinopathy (OIR), ex vivo imaging of retinal flatmounts; format: in vivo
From the text: FIG. 4A-4F. […] FIGS. 4(A) and 4(C) HYPOX-1 in P13 OIR mouse retina. FIGS. 4(B) and 4(D) Pimonidazole immunostaining colocalizes with HYPOX-1 region. […] FIG. 5. Retinal flatmounts from OIR mice intravenously injected with HYPOX-1 (green) were stained with endothelial cell marker, ICAM-2 (red). Accumulation of HYPOX-1 is observed in avascular retina. The mouse model of oxygen induced retinopathy (OIR) was selected as a mouse model for hypoxia and generated as published (24). Briefly, litters with 6 to 8 pups were placed into a 75% oxygen chamber with dams from P7-P12. On P12, pups were removed from the hyperoxic environment to room air. Imaging agents, vehicle controls and dye controls were intravitreally injected (3 μg in 1 μL injection volume) or intravenously injected via tail vein (60 mg/kg) 6 h after removal from hyperoxic environment. Pimonidazole hydrochloride (Hypoxyprobe Inc.) was injected intraperitoneally at a concentration of 60 mg/kg body weight. Immunofluorescence analysis of retinal tissues was performed by dissecting retinas from ocular tissues and fixing them in 10% neutral buffered formalin for 2 h. Tissues were then rinsed in Tris buffered saline and blocked/permeabilized in 10% donkey serum with 1% Triton X-100/0.05% Tween 20 in TBS for 6 h. Retinas were then stained for ICAM-2 and Hypoxyprobe followed by secondary antibody staining as indicated. […] Staining of excised retinas with ICAM-2 was used to identify retinal vasculature and its association with HYPOX staining. […] In addition, HYPOX accumulation in retinal tissue can be accomplished through intraocular or intravenous injection routes.

R28 cells [3] = test: BrdU cell proliferation assay (in vitro toxicity); format: cell-based, rat; settings: up to 100 μM, 24 h
Procedure: FIG. 3A-3B. […] (n=4), p<0.01.
For in vitro toxicity studies, a BrdU cell proliferation assay was performed on R28 cells. The assay was performed according to the manufacturer's protocol with the following specifications. Cells were seeded at 2000 cells/well in a 96-well plate. 24 h after seeding, the cells were serum starved for 6 h. Imaging agents and vehicle controls diluted in complete media were added and allowed to incubate for 24 h. 4 h prior to the end of the incubation, BrdU was added at a concentration of 10 μM.
Both imaging agents were not acutely toxic to retinal cells as assessed by BrdU cell proliferation assays (FIG. 3).

R28 cells [4] = test: immunofluorescence imaging of cells incubated with imaging agent; format: cell-based, rat; settings: 100 μM, 4 h
Procedure: FIG. 2A-2F. R28 retinal neuronal cell lines conditioned under normoxic or hypoxic (4 h) conditions were incubated with 100 μM HYPOX-2 followed by fixation and immunostaining with an antibody specific for pimonidazole adducts in hypoxic cells.
Immunofluorescence analysis of cells was performed by seeding R28 cells at a density of 15,000 cells per well of 8-well chamber slides. When 90% confluent, cells were treated with either imaging agent and pimonidazole hydrochloride or imaging agent only, diluted in complete media, and placed in hypoxia or normoxia for 4 h. Cells were washed 4 times in HBSS, fixed for 10 min with 10% neutral buffered formalin at room temperature, washed 3 times with tris buffered saline and mounted with Prolong Gold with DAPI mounting media.
(§1) Imaging of R28 cells incubated with the hypoxia-sensitive imaging agents further confirmed specificity and mechanism of action.

[5] = tested on: R28 rat retinal neuronal cells; test: in vitro imaging agent uptake assay (microplate fluorescence spectrophotometric assay); format: cell-based; settings: for dose dependence of fluorescence in hypoxic cells: 12 h hypoxia, n=8
Procedure: (§2) Primary human Müller cells and R28 cell line were grown in low glucose DMEM supplemented with 10% Fetal Bovine Serum, 1× GlutaMAX, and 1× Penicillin-Streptomycin. All cells were maintained in a humidified environment with 5% CO2 at 37° C. unless otherwise noted. For hypoxia induction, assay plates were placed into a humidified chamber and ambient air was displaced with a mixture of 5% CO2 and 95% N2 at a flow rate of 20 L/min for 5 min according to manufacturer instructions and published methods (28). The chamber was clamped and placed at 37° C. for the remainder of the time point. R28 cells were treated with 100 μM pimonidazole hydrochloride diluted in complete media and subjected to hypoxia or normoxia for 4 h.
(§3) To perform in vitro imaging agent uptake assays, R28 cells or primary human Müller cells were seeded at a density of 15,000 cells per well in a 96-well black plate with clear bottom. When 90% confluent, assay plates were either place in hypoxia or kept in normoxia for 12 h. They were treated with imaging agents diluted in complete media and returned to hypoxia or kept in normoxia for 30 min. They were washed 4 times with pre-warmed Hank's Buffered Salt Solution (HBSS), kept in normoxia for 1 h, then washed 4 more times in HBSS. Fluorescence intensity was read ([…]: 490 nm, Emission: 520 nm) using a Synergy Mx Plate Reader from Biotek.
(§4) In order to measure the specificity of HYPOX-1 and HYPOX-2 for hypoxic retinal tissues in vitro, R28 rat retinal neuronal (17, 18) or primary human Müller cells (19) were conditioned in a hypoxic chamber purged with a mixture of nitrogen/carbon dioxide up to 12 h. These two cell lines model predominant oxygen-sensitive cell types in retinal diseases with a hypoxia-ischemia component (20). […] The micromolar doses of HYPOX-1 and HYPOX-2 used in these experiments are modeled on doses used to achieve optimal signal to background ratios using pimonidazole immunohistochemistry (21).

[6] = tested on: primary human Müller cells; test: as above; format: cell-based; settings: for increase in hypoxic/normoxic fluorescence intensity ratio: 100 μM; for increase in hypoxic/normoxic fluorescence intensity ratio / dose dependence of fluorescence in hypoxic cells: 12 h hypoxia; for dose dependence of fluorescence in hypoxic cells: Müller cells, n=8
Procedure: as §2, §3, §4

[7] = tested on: Human Retinal Microvascular Endothelial Cells (HRMEC); test: Western analysis of cell lysates with anti-Hypoxyprobe antibody; format: cell-based; settings: 100 μM, 4 h, hypoxic vs normoxic HRMEC
Procedure: FIG. 2G. HYPOX-1 accumulation in hypoxic retinal cells occur through nitroimidazole adduct formation. Human Retinal Microvascular Endothelial Cells (HRMEC) were treated with 100 μM HYPOX-1 under normoxic or hypoxic conditions for 4 h. Cell lysates were probed with an anti-Hypoxyprobe antibody by Western analysis.
as §1

| SMILES | Hypoxyprobe adduct immunostaining, hypoxia-conditioned cells (R28 cells [1]; 4 h hypoxia) | Hypoxyprobe adduct immunostaining, normoxia-conditioned cells (R28 cells [1]; 4 h normoxia) | Hypoxyprobe immunostaining of central avascular retina ([2]; OIR mice, intraperitoneal 60 mg/kg) | accumulation in retina of room air mice (Hypoxyprobe staining) ([2]; room air mice) | cell proliferation (BrdU incorporation) (R28 cells [3]) | pimonidazole adducts by adduct-specific antibody (R28 cells [4]; hypoxic R28 cells, but not normoxic cells) | accumulation in cells (fluorescence imaging) (R28 cells [4]; hypoxic vs normoxic R28 cells) | fluorescence intensity of hypoxia-conditioned vs normoxia-conditioned cells [5] | dose dependence of fluorescence in hypoxic cells [5] | greater fluorescence intensity in hypoxia-conditioned cells ([6]; 10 μM, human Müller cells) [fold] | increase in hypoxic/normoxic fluorescence intensity ratio ([6]; human Müller cells) [fold] | dose dependence of fluorescence in hypoxic cells [6] | fluorescence intensity of hypoxia-conditioned vs normoxia-conditioned cells ([6]; human Müller cells) | accumulation in retina, intraocularly injected ([2]; OIR mice P13, intravitreal 3 μg, retinal flatmounts) | accumulation in retina, intravenously injected ([2]; OIR mice, tail vein 60 mg/kg, ICAM-2 co-staining) | accumulation in retina of age matched control mice ([2]; room air control mice with fully vascularized retinas) | nitroimidazole adduct formation (Western) [7] | detectability of probe ([6]; concentrations lower than 50 μM) |
| --- | --- | --- | --- | --- | --- | --- | --- | --- | --- | --- | --- | --- | --- | --- | --- | --- | --- | --- |
| O=[N+]([O-])c1nccn1CC(O)CN1CCCCC1 (stereo not drawn) [pimonidazole hydrochloride, reference compound] | positive staining | minimal fluorescence | positive immunostaining | no pimonidazole accumulation |  |  |  |  |  |  |  |  |  |  |  |  |  |  |
| O=C1OC2(c3ccc(O)cc3Oc3cc(O)ccc32)c2ccc(NC(=S)NCC3CCN(CC(O)Cn4ccnc4[N+](=O)[O-])CC3)cc21 (stereo not drawn) [HYPOX-2] |  |  |  |  | no significant decrease in cell proliferation | positive for pimonidazole adducts | accumulated in hypoxic cells but not normoxic cells | significantly higher fluorescence intensity | dose-dependent fluorescence enhancement | 32 | 11 | dose-dependent fluorescence enhancement | significantly higher fluorescence intensity |  |  |  |  |  |
| O=C1OC2(c3ccc(O)cc3Oc3cc(O)ccc32)c2ccc(NC(=S)NCCCCCn3ccnc3[N+](=O)[O-])cc21 [HYPOX-1] |  |  |  |  | no significant decrease in cell proliferation |  |  | significantly higher fluorescence intensity | dose-dependent fluorescence enhancement |  | 5 | dose-dependent fluorescence enhancement | significantly higher fluorescence intensity | accumulation of intraocularly-injected HYPOX-1 in central avascular retinas | accumulated in avascular regions | did not accumulate | Adduct formation was increased in hypoxic cells | not detectable |
